The source of these data is patent US20210395406A1, “REVERSIBLE CROSS-LINKING SYSTEM FOR POLYVINYLAMINES” (SOLENIS TECHNOLOGIES, L.P., priority 2020, published 2021).

One may read the melting point as the temperature of the solid-liquid transition. Usually solubility stands for the dissolved amount per volume that the medium holds.

Data set [1] can be described thus: Water solubility of cross-linkers.
Data set [2] can be described thus: Reversibility of cross-linking by means of pH-change. Type of data set: physicochemical. The following applies: gel of 3.9 g Example 2.1 at pH 7 crosslinked with 0.075 g OBP, after adding 2 ml hydrochloric acid (10 w %). The method, then: 3.9 g Example 2.1 at 7 pH stained with rhodamine B were crosslinked with 0.075 g OBP dissolved in 1 mL water at RT. The cross-linking reaction produces within a few seconds a solid gel. After adding 2 ml of hydrochloric acid (10 w %) it takes about 2 h till the gel is completely liquefied. When setting the pH back to neutral by adding caustic the gel is instantaneously formed again.

Data set [3] is described as follows: Oscillatory shear rheology of PVAm hydrogels cross-linked with OBP. Type of data set: physicochemical. As to the method: To investigate the mechanical properties of the hydrogel and to confirm the formation of cross-linking points from a mechanical point of view, dynamic rheological measurements were performed. Hydrogel samples with a varying degree of cross-linking (DC=n(OBP)/n(Am) [mol %]) in the range of 1-5 mol % and a water content of 94 wt % were analyzed under oscillatory shear. […] All samples show an elastic response over the entire frequency range, with G′ distinctly exceeding G″ by two magnitudes. Additionally, a frequency independent behavior for G′ is observed.
Rheological properties of the hydrogels were analyzed via oscillatory shear experiments on the strain-controlled rotational rheometer Ares G2 (TA Instruments, Eschborn, Germany). Hydrogel samples with a varying degree of cross-linking (DC) between 1 and 5 mol % (DC=n(OBP)/n(Am) [mol %]) were prepared in a cylindrical PTFE mold with a diameter of ˜30 mm to obtain uniform disc-shaped specimens. The cross-linking agent (OBP) was first dissolved in 1 ml H2O and then mixed with 3 ml of the 6.6 wt % PVAm solution. The mold was sealed and the cross-linking reaction was allowed to proceed overnight.
The test geometry was a 30 mm diameter plate made from aluminum. The geometry was lowered until a constant axial force of 0.5 N was applied to the sample and the temperature was controlled to 25±0.1° C. by a Peltier element (Advanced Peltier System, TA Instruments). First, an oscillatory strain sweep was performed with a constant frequency of f=1 Hz by varying the strain from γ0=0.01-1000% to determine the linear viscoelastic (LVE) regime. The values at a strain of γ0=0.1% were chosen to be representative for the LVE regime. Subsequently, frequency sweeps were employed at a fixed strain of 0.1% while the frequency was varied from 0.03 to 100 Hz. To study the self-healing properties, the sample with DC=3 mol % was cut and subsequently cured in a sealed mold at 70° C. for 3 h.

SMILES strings stand for the structures. In brackets after ≈: the same amount, converted by molar mass. Structures can show the parent of a compound that is named as a salt.

Turning to `O=C1CCN(C(=O)C(=O)N2CCC(=O)CC2)CC1` (as salt: hydrochloride) (hydrate or solvate) [Example 1.1, 1,2-bis(4-oxopiperidin-1-yl)ethane-1,2-dione], the melting point amounted to 174 °C.
For the compound `O=C1CCN(C(=O)C(=O)N2CCC(=O)CC2)CC1` [Example 1.1, 1,2-bis(4-oxopiperidin-1-yl)ethane-1,2-dione], the solubility in data set [1] turned out to be 60 mg/mL (≈ 238 mM). Also, in data set [2], the “time till the gel is completely liquefied” value is reported as “about 2 h”. The mechanical strength result in data set [3] (PVAm hydrogels cross-linked with OBP, at higher DC values, water content 94 wt %) is “up to 15 kPa”. The storage modulus was approximately 6 kPa in data set [3] (PVAm/OBP hydrogel DC=3 mol %, after first self-healing cycle) and “approximately 7 kPa” in data set [3] (PVAm/OBP hydrogel DC=3 mol %, before first self-healing cycle). Moreover, in data set [3] (PVAm/OBP hydrogel DC=3 mol %, cut and measured directly without curing), the “decrease of G′” value is given as 42%. The “decrease of the storage modulus” value in data set [3] (PVAm/OBP hydrogel DC=3 mol %, first self-healing cycle, cut and cured at 70° C. for 3 h) is reported as 14%.
On to `O=C1CCN(C(=O)c2ccc(C(=O)N3CCC(=O)CC3)cc2)CC1` [Example 1.2, 1,1′-Terephthaloylbis(piperidin-4-one)], for which, in data set [1], the concentration in solution (solubility) came to 0.5 mg/mL (≈ 1.52 mM).
